Laboratory results as given in US20250042900A1 (priority 2022, published 2025).
Where a name gives a salt, the structure may show the parent alone. Read-outs that look alike come from different tables or passages of the source.

Assays:
[1] = target: Dopamine Receptor D2 (DRD2S) (Homo sapiens, UniProt P14416); test: cAMP secondary messenger assay, antagonist format; assay type: cell-based; details: read-out: IC50 (μM) Antag./Blocker/Inhibitor
KvLQT1/minK = KvLQT1/minK (Homo sapiens, UniProt P51787); test: Ion channel assay, opener format; assay type: cell-based; details: read-out: EC50 (μM) Agonist/Opener
[2] = target: Adrenergic Receptor α2A (ADRA2A) (Homo sapiens, UniProt P08913); test: cAMP secondary messenger assay, antagonist format; assay type: cell-based; details: read-out: IC50 (μM) Antag./Blocker/Inhibitor
[3] = target: Cannabinoid Receptor 2 (CNR2) (Homo sapiens, UniProt P34972); test: cAMP secondary messenger assay, agonist format; assay type: cell-based; details: read-out: EC50 (μM) Agonist/Opener
[4] = target: Cholecystokinin Receptor A (CCKAR) (Homo sapiens, UniProt P32238); test: Calcium flux secondary messenger assay, agonist format; assay type: cell-based; details: read-out: EC50 (μM) Agonist/Opener
[5] = target: 5-Hydroxytryptamine (Serotonin) Receptor 2A (5-HT2A) (Homo sapiens, UniProt P28223); test: Calcium flux secondary messenger assay, antagonist format; assay type: cell-based; details: read-out: IC50 (μM) Antag./Blocker/Inhibitor
[6] = target: T1, 5-Hydroxytryptamine (Serotonin) Receptor 1A (5-HT1A) (Homo sapiens, UniProt P08908); test: cAMP secondary messenger assay, agonist format; assay type: cell-based; details: read-out: EC50 (μM) Agonist/Opener
T1 construct: host or cells: cAMP Hunter cell line

[7] = target: Opioid Receptor Kappa 1 (OPRK1) (Homo sapiens, UniProt P41145); test: cAMP secondary messenger assay, antagonist format; assay type: cell-based; details: read-out: IC50 (μM) Antag./Blocker/Inhibitor
[8] = target: Adenosine Receptor A2A (ADORA2A) (Homo sapiens, UniProt P29274); test: Calcium flux secondary messenger assay, agonist format; assay type: cell-based; details: read-out: EC50 (μM) Agonist/Opener
[9] = target: T2, Rho Associated Coiled-Coil Containing Protein Kinase 1 (ROCK1) (Homo sapiens, UniProt Q13464); test: Kinase binding assay (KINOMEscan); details: inhibitor, read-out: IC50 (μM) Antag./Blocker/Inhibitor
T2 construct: T7 phage fusion (most assays) or DNA tag for qPCR (the remaining kinases); made in house; host or cells: E. coli (BL21-derived, T7 phage display) or HEK-293

[10] = target: T3, Adrenergic Receptor β1 (ADRB1) (Homo sapiens, UniProt P08588); test: cAMP secondary messenger assay, agonist format; assay type: cell-based; details: read-out: EC50 (μM) Agonist/Opener
[11] = target: HTR2A (5-hydroxytryptamine (serotonin) receptor 2A) (Homo sapiens, UniProt P28223); test: In vitro activity at 5-HT2AR, agonist mode (calcium flux secondary messenger assay); assay type: cell-based; details: for EC50: agonist
[12] = target: T3, Adrenergic Receptor β1 (ADRB1); test: cAMP secondary messenger assay, antagonist format; assay type: cell-based; details: read-out: IC50 (μM) Antag./Blocker/Inhibitor
[13] = target: NAV1.5 (tetrodotoxin-resistant voltage-gated sodium channel) (Homo sapiens, UniProt Q14524); test: cell-based
[14] = target: Arginine Vasopressin Receptor 1A (AVPR1A) (Homo sapiens, UniProt P37288); test: Calcium flux secondary messenger assay, agonist format; assay type: cell-based; details: read-out: EC50 (μM) Agonist/Opener
[15] = target: Nicotinic acetylcholine Receptor α4 β2 (nAChR(a4/b2)) (Homo sapiens, UniProt P17787+P43681); test: Ion channel assay, opener format; assay type: cell-based; details: read-out: EC50 (μM) Agonist/Opener
[16] = target: T4, Vascular endothelial growth factor receptor 2 (KDR tyrosine kinase) (VEGFR2) (Homo sapiens, UniProt P35968); test: biochemical; details: Binding, inhibitor, read-out: IC50 (μM) Antag./Blocker/Inhibitor
T4 construct: T7 phage fusion (most assays) or DNA tag for qPCR (the remaining kinases); made in house; host or cells: E. coli (BL21-derived, T7 phage display) or HEK-293

[17] = target: Muscarinic acetylcholine Receptor M1 (CHRM1) (Homo sapiens, UniProt P11229); test: Calcium flux secondary messenger assay, agonist format; assay type: cell-based; details: read-out: EC50 (μM) Agonist/Opener
5-HT1B receptors = target: T5, 5-HT1B receptors (Homo sapiens, UniProt P28222); test: In vitro activity at 5-HT1B receptors, agonist mode (cAMP secondary messenger assay); assay type: cell-based
T5 construct: host or cells: cAMP Hunter cell line

serotonin transporter = target: T6, serotonin transporter (Homo sapiens, UniProt P31645); test: cell-based; details: SERT, blocker, read-out: IC50 (μM) Antag./Blocker/Inhibitor
T6 construct: expressed in transfected cells

[18] = target: Nuclear Hormone Glucocorticoid Receptor (GR) (Homo sapiens, UniProt P04150); test: NHR Protein Interaction assay, antagonist format; assay type: cell-based; details: read-out: IC50 (μM) Antag./Blocker/Inhibitor
[19] = target: Dopamine Receptor D1 (DRD1) (Homo sapiens, UniProt P21728); test: cAMP secondary messenger assay, antagonist format; assay type: cell-based; details: read-out: IC50 (μM) Antag./Blocker/Inhibitor
[20] = target: T7, Adrenergic Receptor β2 (ADRB2) (Homo sapiens, UniProt P07550); test: cAMP secondary messenger assay, agonist format; assay type: cell-based; details: read-out: EC50 (μM) Agonist/Opener
[21] = target: Muscarinic acetylcholine Receptor M3 (CHRM3) (Homo sapiens, UniProt P20309); test: cell-based; details: Calcium Flux, antagonist, read-out: IC50 (μM) Antag./Blocker/Inhibitor
MAOA = target: T8, MAOA (Homo sapiens, UniProt P21397); test: Enzymatic assay MAOA; assay type: biochemical; details: inhibitor, read-out: IC50 (μM) Antag./Blocker/Inhibitor
T8 construct: purchased Sigma

[22] = target: T7, Adrenergic Receptor β2 (ADRB2); test: cAMP secondary messenger assay, antagonist format; assay type: cell-based; details: read-out: IC50 (μM) Antag./Blocker/Inhibitor
[23] = target: 5-Hydroxytryptamine (Serotonin) Receptor 2B (5-HT2B) (Homo sapiens, UniProt P41595); test: Calcium flux secondary messenger assay, antagonist format; assay type: cell-based; details: read-out: IC50 (μM) Antag./Blocker/Inhibitor
[24] = target: Opioid Receptor Mu (OPRM1) (Homo sapiens, UniProt P35372); test: cell-based; details: cAMP, antagonist, read-out: IC50 (μM) Antag./Blocker/Inhibitor
PDE3A = target: T9, PDE3A (Homo sapiens, UniProt Q14432); test: Enzymatic assay PDE3A; assay type: biochemical; details: inhibitor, read-out: IC50 (μM) Antag./Blocker/Inhibitor
T9 construct: purchased Signal Chem

hERG = hERG (Homo sapiens, UniProt Q12809); test: Ion channel assay, blocker format; assay type: cell-based; details: read-out: IC50 (μM) Antag./Blocker/Inhibitor
Sequence of hERG (Q12809 whole entry): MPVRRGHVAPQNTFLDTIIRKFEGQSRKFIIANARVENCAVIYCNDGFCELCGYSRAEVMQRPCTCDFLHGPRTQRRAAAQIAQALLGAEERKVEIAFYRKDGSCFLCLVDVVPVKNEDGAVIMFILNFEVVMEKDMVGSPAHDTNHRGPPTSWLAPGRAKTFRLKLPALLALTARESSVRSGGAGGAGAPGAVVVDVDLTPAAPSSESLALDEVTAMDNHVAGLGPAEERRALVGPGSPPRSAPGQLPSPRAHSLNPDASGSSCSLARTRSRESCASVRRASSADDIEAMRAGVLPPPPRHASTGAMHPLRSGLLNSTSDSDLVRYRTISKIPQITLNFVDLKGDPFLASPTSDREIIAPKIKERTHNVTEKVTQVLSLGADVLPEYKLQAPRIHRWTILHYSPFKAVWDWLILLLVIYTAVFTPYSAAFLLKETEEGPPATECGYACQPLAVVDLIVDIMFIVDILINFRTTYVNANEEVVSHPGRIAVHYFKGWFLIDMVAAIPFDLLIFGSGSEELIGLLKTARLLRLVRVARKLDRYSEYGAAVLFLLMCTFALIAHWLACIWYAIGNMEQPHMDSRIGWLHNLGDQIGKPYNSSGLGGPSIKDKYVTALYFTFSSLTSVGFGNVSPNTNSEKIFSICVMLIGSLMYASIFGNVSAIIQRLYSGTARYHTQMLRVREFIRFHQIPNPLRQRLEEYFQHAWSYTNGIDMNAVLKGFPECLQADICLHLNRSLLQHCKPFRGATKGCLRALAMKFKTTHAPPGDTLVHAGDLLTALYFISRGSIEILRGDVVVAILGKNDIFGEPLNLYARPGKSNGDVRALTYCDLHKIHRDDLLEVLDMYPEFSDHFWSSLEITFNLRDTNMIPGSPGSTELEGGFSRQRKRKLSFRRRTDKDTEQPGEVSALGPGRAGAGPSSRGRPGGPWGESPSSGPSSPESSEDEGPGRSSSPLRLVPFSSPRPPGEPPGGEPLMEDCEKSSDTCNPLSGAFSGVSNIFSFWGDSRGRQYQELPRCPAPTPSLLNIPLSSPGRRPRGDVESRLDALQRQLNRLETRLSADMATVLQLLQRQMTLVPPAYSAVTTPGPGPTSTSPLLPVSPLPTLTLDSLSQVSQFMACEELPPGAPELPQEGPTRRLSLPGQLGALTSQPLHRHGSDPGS

T5 sequence (P28222 whole entry): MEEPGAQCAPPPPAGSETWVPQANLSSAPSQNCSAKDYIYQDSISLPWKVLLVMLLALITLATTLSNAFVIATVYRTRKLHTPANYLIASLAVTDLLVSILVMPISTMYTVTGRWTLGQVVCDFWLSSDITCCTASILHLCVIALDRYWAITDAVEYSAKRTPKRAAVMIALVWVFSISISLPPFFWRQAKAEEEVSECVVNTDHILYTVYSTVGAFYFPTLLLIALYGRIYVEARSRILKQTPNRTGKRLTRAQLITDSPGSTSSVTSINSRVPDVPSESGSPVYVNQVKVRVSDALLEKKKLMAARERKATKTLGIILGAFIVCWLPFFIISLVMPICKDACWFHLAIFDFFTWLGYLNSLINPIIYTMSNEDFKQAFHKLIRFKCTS
T3 sequence (P08588 whole entry): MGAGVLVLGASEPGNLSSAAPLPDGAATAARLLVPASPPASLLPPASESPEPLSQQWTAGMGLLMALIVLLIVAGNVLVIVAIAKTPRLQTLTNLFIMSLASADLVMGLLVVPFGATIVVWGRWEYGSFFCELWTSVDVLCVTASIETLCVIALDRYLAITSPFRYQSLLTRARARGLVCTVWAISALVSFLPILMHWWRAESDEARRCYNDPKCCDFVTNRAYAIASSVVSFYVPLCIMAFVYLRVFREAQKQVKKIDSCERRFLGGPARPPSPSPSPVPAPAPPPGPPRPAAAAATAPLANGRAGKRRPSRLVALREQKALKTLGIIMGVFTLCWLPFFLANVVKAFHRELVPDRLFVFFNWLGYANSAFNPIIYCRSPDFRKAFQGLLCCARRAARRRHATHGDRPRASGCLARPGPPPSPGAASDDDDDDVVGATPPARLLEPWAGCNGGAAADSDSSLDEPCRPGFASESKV
T7 sequence (P07550 whole entry): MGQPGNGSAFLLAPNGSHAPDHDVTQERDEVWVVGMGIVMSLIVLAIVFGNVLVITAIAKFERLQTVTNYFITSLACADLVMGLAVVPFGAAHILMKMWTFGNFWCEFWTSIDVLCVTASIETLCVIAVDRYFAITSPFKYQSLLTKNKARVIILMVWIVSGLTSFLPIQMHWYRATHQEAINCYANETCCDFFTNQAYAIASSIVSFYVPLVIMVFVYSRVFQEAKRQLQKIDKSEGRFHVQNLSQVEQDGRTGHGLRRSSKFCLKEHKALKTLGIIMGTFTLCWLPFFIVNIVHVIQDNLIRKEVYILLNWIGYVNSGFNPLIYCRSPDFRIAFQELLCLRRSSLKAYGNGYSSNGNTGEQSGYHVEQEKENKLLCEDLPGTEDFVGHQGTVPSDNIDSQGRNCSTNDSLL
Sequence of Dopamine Receptor D1 (DRD1) (P21728 whole entry): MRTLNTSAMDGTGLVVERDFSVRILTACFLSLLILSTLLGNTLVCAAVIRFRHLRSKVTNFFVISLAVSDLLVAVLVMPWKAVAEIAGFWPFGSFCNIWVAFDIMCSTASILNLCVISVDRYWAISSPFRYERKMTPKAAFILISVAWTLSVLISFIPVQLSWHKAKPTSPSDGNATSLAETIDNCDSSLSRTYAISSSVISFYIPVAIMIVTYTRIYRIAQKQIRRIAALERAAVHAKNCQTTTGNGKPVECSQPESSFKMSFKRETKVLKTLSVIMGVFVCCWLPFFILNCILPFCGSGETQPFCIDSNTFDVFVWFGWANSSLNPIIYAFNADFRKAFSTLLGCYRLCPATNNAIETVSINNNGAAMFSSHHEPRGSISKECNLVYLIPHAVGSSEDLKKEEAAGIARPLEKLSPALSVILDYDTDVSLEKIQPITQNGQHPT
Sequence of Cannabinoid Receptor 2 (CNR2) (P34972 whole entry): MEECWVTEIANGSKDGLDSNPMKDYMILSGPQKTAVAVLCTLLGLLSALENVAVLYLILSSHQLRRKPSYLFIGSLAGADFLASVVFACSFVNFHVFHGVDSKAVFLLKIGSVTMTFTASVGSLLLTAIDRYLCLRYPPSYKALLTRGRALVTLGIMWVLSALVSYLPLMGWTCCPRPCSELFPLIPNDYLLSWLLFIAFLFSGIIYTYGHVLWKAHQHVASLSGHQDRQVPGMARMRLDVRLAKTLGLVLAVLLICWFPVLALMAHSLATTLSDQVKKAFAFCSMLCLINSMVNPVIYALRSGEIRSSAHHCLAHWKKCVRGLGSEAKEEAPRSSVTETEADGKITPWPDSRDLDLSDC
Sequence of Muscarinic acetylcholine Receptor M3 (CHRM3) (P20309 whole entry): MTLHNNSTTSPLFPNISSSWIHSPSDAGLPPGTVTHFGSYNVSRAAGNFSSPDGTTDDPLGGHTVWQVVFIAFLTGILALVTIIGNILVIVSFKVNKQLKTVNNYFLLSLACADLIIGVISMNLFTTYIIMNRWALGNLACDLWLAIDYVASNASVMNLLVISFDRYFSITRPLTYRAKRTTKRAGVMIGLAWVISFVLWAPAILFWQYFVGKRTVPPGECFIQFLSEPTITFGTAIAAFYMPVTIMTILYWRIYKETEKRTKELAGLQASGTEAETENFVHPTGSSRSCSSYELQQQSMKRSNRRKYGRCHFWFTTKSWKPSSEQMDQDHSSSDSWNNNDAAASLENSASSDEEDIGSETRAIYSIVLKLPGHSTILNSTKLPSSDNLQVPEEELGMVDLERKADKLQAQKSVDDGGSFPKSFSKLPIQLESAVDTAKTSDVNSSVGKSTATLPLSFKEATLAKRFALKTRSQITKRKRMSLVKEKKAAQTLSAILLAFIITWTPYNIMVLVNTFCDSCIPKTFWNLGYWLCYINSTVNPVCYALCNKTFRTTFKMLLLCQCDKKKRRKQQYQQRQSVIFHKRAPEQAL
T9 sequence (Q14432 whole entry): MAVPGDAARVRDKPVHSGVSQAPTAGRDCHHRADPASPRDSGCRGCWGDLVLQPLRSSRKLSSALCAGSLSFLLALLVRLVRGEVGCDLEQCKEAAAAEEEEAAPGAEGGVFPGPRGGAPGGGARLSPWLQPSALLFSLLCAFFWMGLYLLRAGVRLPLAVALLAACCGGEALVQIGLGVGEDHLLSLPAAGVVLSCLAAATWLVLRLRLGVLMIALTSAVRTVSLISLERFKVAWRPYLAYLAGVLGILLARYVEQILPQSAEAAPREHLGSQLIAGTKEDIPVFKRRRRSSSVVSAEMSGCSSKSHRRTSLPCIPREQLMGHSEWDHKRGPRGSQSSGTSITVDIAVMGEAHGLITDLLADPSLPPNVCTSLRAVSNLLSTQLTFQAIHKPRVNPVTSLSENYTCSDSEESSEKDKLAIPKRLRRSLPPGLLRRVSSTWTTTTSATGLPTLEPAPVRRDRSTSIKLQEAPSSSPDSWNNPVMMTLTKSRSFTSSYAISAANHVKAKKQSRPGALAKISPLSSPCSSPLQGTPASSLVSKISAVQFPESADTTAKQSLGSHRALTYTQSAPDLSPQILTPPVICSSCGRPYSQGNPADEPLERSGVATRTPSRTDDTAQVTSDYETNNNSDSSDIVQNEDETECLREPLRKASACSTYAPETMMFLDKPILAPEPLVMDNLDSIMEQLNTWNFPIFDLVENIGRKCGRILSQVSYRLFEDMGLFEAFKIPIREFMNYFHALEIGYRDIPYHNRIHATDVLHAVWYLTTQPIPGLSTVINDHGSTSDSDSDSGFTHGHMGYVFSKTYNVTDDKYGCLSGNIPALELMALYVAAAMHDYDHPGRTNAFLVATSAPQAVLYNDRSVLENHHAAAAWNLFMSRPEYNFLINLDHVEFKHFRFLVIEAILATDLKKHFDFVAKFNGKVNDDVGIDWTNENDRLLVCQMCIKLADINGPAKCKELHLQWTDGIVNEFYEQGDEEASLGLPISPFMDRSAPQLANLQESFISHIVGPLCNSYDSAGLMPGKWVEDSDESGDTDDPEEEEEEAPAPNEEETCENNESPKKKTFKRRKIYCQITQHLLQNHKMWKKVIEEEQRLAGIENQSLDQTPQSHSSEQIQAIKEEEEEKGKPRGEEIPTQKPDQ

CN(C)CCc1ccn2ccccc12 [28-12 oxalate, 2-(indolizin-1-yl)-N, N-dimethylethan-1-amine oxalate]
IC50 [1]: 22.3 µM
EC50 (KvLQT1/minK): > 30 µM
IC50 [2]: > 30 µM
EC50 [3]: > 30 µM
EC50 [4]: > 30 µM
IC50 [5]: 1.08 µM
EC50 [6]: > 30 µM
IC50 [7]: > 30 µM
EC50 [8]: > 30 µM
IC50 [9]: > 30 µM
EC50 [10]: > 30 µM
agonist effects at 5-HT2AR (in words) [11]: partial agonist effects
EC50 ([11]; 5-HT2A, Calcium Flux, read-out: EC50 (μM) Agonist/Opener): 0.052 µM
EC50 ([11]; ten concentrations up to 30 μM, estimated, read-out: EC50 at 5-HT2AR): ~0.0522 µM
Emax ([11]; of the response produced by 5-HT, read-out: maximum effect at 5-HT2AR): ~30%
IC50 [12]: > 30 µM
IC50 [13]: > 30 µM
EC50 [14]: > 30 µM
EC50 [15]: > 30 µM
IC50 [16]: > 30 µM
EC50 [17]: > 30 µM
EC50 (5-HT1B receptors; 5-HT1B, cAMP, read-out: EC50 (μM) Agonist/Opener): 0.143 µM
EC50 (5-HT1B receptors; EC50, agonism of 5-HT1B receptors, ten concentrations up to 30 μM): ~0.143 µM
IC50 (serotonin transporter): > 30 µM
IC50 [18]: 17.1 µM
IC50 [19]: > 30 µM
EC50 [20]: > 30 µM
IC50 [21]: > 30 µM
IC50 (MAOA): 7.25 µM
IC50 [22]: 10.2 µM
IC50 [23]: 3.28 µM
IC50 [24]: > 30 µM
IC50 (PDE3A): > 30 µM
IC50 (hERG): > 30 µM
